Where two headings read alike, the source gives them in different places.
Key:
Assay type in all cases: in vivo
[1] = test system: Thrips tabaci; test: Thrips tabaci (onion thrips), sunflower leaf disc test; conditions: foliar, 144 h, read-out: control (mortality)
Protocol: Thrips tabaci (Onion Thrips):
(§1) Sunflower leaf discs were placed on agar in 24-well microtiter plates and sprayed with aqueous test solutions prepared from 10′000 ppm DMSO stock solutions. After drying the leaf discs were infested with a thrips population of mixed ages. The samples were assessed for mortality 6 days after infestation.

[2] = test system: Myzus persicae; test: Myzus persicae (green peach aphid), sucrose solution / Parafilm test; conditions: 120 h
Source text: (§2) Myzus persicae (Green Peach Aphid):
Test compounds were applied by pipette into 24 well plates and mixed with Sucrose solution. Application rate: 12.5 ppm. The plates were closed with a stretched parafilm. A plastic stencil with 24 holes is placed onto the plate and infested pea seedlings were placed directly on the Parafilm. The infested plate is closed with a gel blotting paper and another plastic stencil and then turned upside down. 5 days after infestation the samples were checked on mortality.

[3] = test system: Plutella xylostella; test: Plutella xylostella (diamond back moth), artificial diet test; conditions: 120 h, read-out: control (mortality and growth inhibition)
Protocol: Plutella xylostella (Diamond Back Moth):
(§3) 24-well microtiter plates with artificial diet were treated with aqueous test solutions prepared from 10′000 ppm DMSO stock solutions by pipetting. After drying, the plates were infested with L2 larvae (10 to 15 per well). The samples were assessed for mortality and growth inhibition in comparison to untreated samples 5 days after infestation.

[4] = test system: Diabrotica balteata; test: Diabrotica balteata (corn root worm), maize sprout test; conditions: 96 h, read-out: control (mortality and growth inhibition)
Protocol: Diabrotica balteata, (Corn Root Worm)
as §3, with “Maize sprouts, placed on an agar layer in 24-well” for “24-well”, “plates” for “plates with artificial diet”, “spraying.” for “pipetting.”, “(6” for “(10”, “10” for “15”, “4” for “5”

[5] = test system: Spodoptera littoralis; test: Spodoptera littoralis (Egyptian cotton leaf worm), cotton leaf disc spray test; conditions: foliar, 72 h, read-out: control (at least one of mortality, anti-feedant effect, growth inhibition); for percent control (mortality, anti-feedant effect or growth inhibition) at 200 ppm: application rate 200 ppm, L1 larvae, 3 days after infestation
Protocol: Spodoptera littoralis (Egyptian Cotton Leaf Worm)
Cotton leaf discs were placed on agar in 24-well microtiter plates and sprayed with aqueous test solutions prepared from 10′000 ppm DMSO stock solutions. After drying the leaf discs were infested with five L1 larvae. The samples were assessed for mortality, anti-feedant effect, and growth inhibition in comparison to untreated samples 3 days after infestation. Control of Spodoptera littoralis by a test sample is when at least one of mortality, anti-feedant effect, and growth inhibition is higher than the untreated sample.

[6] = test system: Tetranychus urticae; test: Tetranychus urticae (two-spotted spider mite), bean leaf disc test; conditions: foliar, 192 h, read-out: control (mortality on mixed population, mobile stages)
Protocol: Tetranychus urticae (Two-Spotted Spider Mite):
as §1, with “Bean” for “Sunflower”, “discs” for “discs were placed”, “were” for “and”, “mite” for “thrips”, “on mixed population (mobile stages) 8” for “6”

[7] = test system: Myzus persicae; test: Myzus persicae (green peach aphid), sunflower leaf disc spray test; conditions: foliar, 144 h
Protocol: as §2
Sunflower leaf discs were placed on agar in a 24-well microtiter plate and sprayed with test solutions at an application rate of 200 ppm. After drying, the leaf discs were infested with an aphid population of mixed ages. After an incubation period of 6 DAT, samples were checked for mortality. The following compounds gave at least 80% mortality of Myzus persicae: compounds 1,2, 3, 4, 5, 6, 11, 12, 15, 17, 18, 19, 20, 23, 24, 25, 26, 27, 30, 32, 33, 34 35, 41, 43, 44, 47, 50, 55, 58, 59, 60, 61, 62, 63, 64, 65 and 66.

[8] = test system: Euschistus heros; test: Euschistus heros (neotropical brown stink bug), soybean leaf test; conditions: 120 h, read-out: effect in at least one of the two categories (mortality or growth inhibition); for percent effect (mortality or growth inhibition) at 200 ppm: application rate 200 ppm, N2 nymphs, 5 days after infestation
Protocol: Euschistus heros (Neotropical Brown Stink Bug):
Soybean leaves on agar in 24-well microtiter plates were sprayed with aqueous test solutions prepared from 10′000 ppm DMSO stock solutions. After drying the leaves were infested with N2 nymphs. The samples were assessed for mortality and growth inhibition in comparison to untreated samples 5 days after infestation.

[9] = application rate 200 ppm, mixed ages, 6 days after infestation
[10] = test rate of 12 ppm, sucrose solution, 5 days after infestation, read-out: mortality
[11] = application rate 200 ppm, L2 larvae, 5 days after infestation
[12] = application rate 200 ppm, L2 larvae, 4 days after infestation
[13] = application rate 200 ppm, 8 days after infestation
[14] = application rate 200 ppm, mixed ages, 6 DAT, read-out: mortality

Cn1nc(OC(F)(F)C(F)OC(F)(F)C(F)(F)C(F)(F)F)c(C(F)(F)F)c1-n1cc(-c2ccc(Cl)c(C(=O)NC3(C#N)CC3)c2)cn1 (centres unmarked) [compound 17]
≥ 80%: mortality at 200 ppm [1] | mortality at 12 ppm [2] | mortality at 200 ppm [3] | mortality at 200 ppm [4] | mortality at 200 ppm [5] | mortality at 200 ppm [6] | mortality at 200 ppm [7] | percent control (mortality or growth inhibition) at 200 ppm [8]

CN(C(=O)c1cc(-c2cnn(-c3c(C(F)(F)F)c(OC(F)(F)C(F)C(F)(F)F)nn3C)c2)ccc1Cl)C1(C#N)CC1 (centres unmarked) [compound 55]
≥ 80%: mortality at 200 ppm [1, 9] | mortality at 12 ppm [2, 10] | mortality at 200 ppm [3, 11] | mortality at 200 ppm [4, 12] | percent control (mortality, anti-feedant effect or growth inhibition) at 200 ppm [5] | mortality at 200 ppm [6, 13] | mortality at 200 ppm [7, 14] | percent effect (mortality or growth inhibition) at 200 ppm [8]

Cn1nc(OCC(F)F)c(C(F)(F)F)c1-n1cc(-c2ccc(Cl)c(C(=O)NC3(C#N)CC3)c2)cn1 [compound 23]
≥ 80%: mortality at 200 ppm [1, 9] | mortality at 12 ppm [2, 10] | mortality at 200 ppm [3, 11] | mortality at 200 ppm [4, 12] | percent control (mortality, anti-feedant effect or growth inhibition) at 200 ppm [5] | mortality at 200 ppm [6, 13] | mortality at 200 ppm [7, 14] | percent effect (mortality or growth inhibition) at 200 ppm [8]

Cn1nc(OCC(F)(F)F)c(C(F)(F)F)c1-n1cc(-c2ccc(Cl)c(C(=O)NC3CC3)c2)cn1 [compound 2]
≥ 80%: mortality at 200 ppm [1, 9] | mortality at 12 ppm [2, 10] | mortality at 200 ppm [3, 11] | mortality at 200 ppm [4, 12] | percent control (mortality, anti-feedant effect or growth inhibition) at 200 ppm [5] | mortality at 200 ppm [6, 13] | mortality at 200 ppm [7, 14] | percent effect (mortality or growth inhibition) at 200 ppm [8]

Cn1nc(OCC(F)(F)C(F)(F)C(F)(F)C(F)F)c(C(F)(F)F)c1-n1cc(-c2ccc(Cl)c(C(=O)NC3(C#N)CC3)c2)cn1 [compound 20]
≥ 80%: mortality at 200 ppm [1] | mortality at 12 ppm [2] | mortality at 200 ppm [3] | mortality at 200 ppm [4] | mortality at 200 ppm [5] | mortality at 200 ppm [6] | mortality at 200 ppm [7] | percent control (mortality or growth inhibition) at 200 ppm [8]

Cn1nc(OC(F)(F)C(F)(F)Br)c(C(F)(F)F)c1-n1cc(-c2ccc(Cl)c(C(=O)NC3(C#N)CC3)c2)cn1 [compound 12]
≥ 80%: mortality at 200 ppm [1, 9] | mortality at 12 ppm [2, 10] | mortality at 200 ppm [3, 11] | mortality at 200 ppm [4, 12] | percent control (mortality, anti-feedant effect or growth inhibition) at 200 ppm [5] | mortality at 200 ppm [6, 13] | mortality at 200 ppm [7, 14] | percent effect (mortality or growth inhibition) at 200 ppm [8]

Cn1nc(OCC(F)(F)C(F)(F)F)c(C(F)(F)F)c1-n1cc(-c2ccc(Cl)c(C(=O)NC3CC3)c2)cn1 [compound 32]
≥ 80%: mortality at 200 ppm [1, 9] | mortality at 12 ppm [2, 10] | mortality at 200 ppm [3, 11] | mortality at 200 ppm [4, 12] | percent control (mortality, anti-feedant effect or growth inhibition) at 200 ppm [5] | mortality at 200 ppm [6, 13] | mortality at 200 ppm [7, 14] | percent effect (mortality or growth inhibition) at 200 ppm [8]

Cn1nc(OC(F)(F)C(F)F)c(C(F)(F)F)c1-n1cc(-c2ccc(Cl)c(C(=O)NC3(C#N)CC3)c2)cn1 [compound 11]
≥ 80%: mortality at 200 ppm [1, 9] | mortality at 12 ppm [2, 10] | mortality at 200 ppm [3, 11] | mortality at 200 ppm [4, 12] | percent control (mortality, anti-feedant effect or growth inhibition) at 200 ppm [5] | mortality at 200 ppm [6, 13] | mortality at 200 ppm [7, 14] | percent effect (mortality or growth inhibition) at 200 ppm [8]

Cn1nc(OCC(F)(F)C(F)(F)C(F)(F)F)c(C(F)(F)F)c1-n1cc(-c2ccc(Cl)c(C(=O)NC3(C#N)CC3)c2)cn1 [compound 19]
≥ 80%: mortality at 200 ppm [1] | mortality at 12 ppm [2] | mortality at 200 ppm [3] | mortality at 200 ppm [4] | mortality at 200 ppm [5] | mortality at 200 ppm [6] | mortality at 200 ppm [7] | percent control (mortality or growth inhibition) at 200 ppm [8]

Cn1nc(OC(F)(F)C(F)(C(F)=C(F)C(F)(F)F)C(F)(F)F)c(C(F)(F)F)c1-n1cc(-c2ccc(Cl)c(C(=O)NC3(C#N)CC3)c2)cn1 (centres unmarked) [compound 50]
≥ 80%: mortality at 200 ppm [1, 9] | mortality at 12 ppm [2, 10] | mortality at 200 ppm [3, 11] | mortality at 200 ppm [4, 12] | percent control (mortality, anti-feedant effect or growth inhibition) at 200 ppm [5] | mortality at 200 ppm [6, 13] | mortality at 200 ppm [7, 14] | percent effect (mortality or growth inhibition) at 200 ppm [8]

Cn1nc(OC(F)(F)C(F)Br)c(C(F)(F)F)c1-n1cc(-c2ccc(Cl)c(C(=O)NC3(C#N)CC3)c2)cn1 (centres unmarked) [compound 47]
≥ 80%: mortality at 200 ppm [1, 9] | mortality at 12 ppm [2, 10] | mortality at 200 ppm [3, 11] | mortality at 200 ppm [4, 12] | percent control (mortality, anti-feedant effect or growth inhibition) at 200 ppm [5] | mortality at 200 ppm [6, 13] | mortality at 200 ppm [7, 14] | percent effect (mortality or growth inhibition) at 200 ppm [8]

Cn1nc(OCC(F)(F)F)c(C(F)(F)F)c1-n1cc(-c2ccc(Cl)c(C(=O)NC3(C#N)CC3)c2)cn1 [compound 3]
≥ 80%: mortality at 200 ppm [1, 9] | mortality at 12 ppm [2, 10] | mortality at 200 ppm [3, 11] | mortality at 200 ppm [4, 12] | percent control (mortality, anti-feedant effect or growth inhibition) at 200 ppm [5] | mortality at 200 ppm [6, 13] | mortality at 200 ppm [7, 14] | percent effect (mortality or growth inhibition) at 200 ppm [8]

Cn1nc(OCC(F)(F)C(F)F)c(C(F)(F)F)c1-n1cc(-c2ccc(Cl)c(C(=O)NC3(C#N)CC3)c2)cn1 [compound 30]
≥ 80%: mortality at 200 ppm [1, 9] | mortality at 12 ppm [2, 10] | mortality at 200 ppm [3, 11] | mortality at 200 ppm [4, 12] | percent control (mortality, anti-feedant effect or growth inhibition) at 200 ppm [5] | mortality at 200 ppm [6, 13] | mortality at 200 ppm [7, 14] | percent effect (mortality or growth inhibition) at 200 ppm [8]

Cn1nc(OC(F)(F)C(F)C(F)(F)F)c(C(F)(F)F)c1-n1cc(-c2ccc(F)c(C(=O)NC3(C#N)CC3)c2)cn1 (centres unmarked) [compound 59]
≥ 80%: mortality at 200 ppm [1, 9] | mortality at 12 ppm [2, 10] | mortality at 200 ppm [3, 11] | mortality at 200 ppm [4, 12] | percent control (mortality, anti-feedant effect or growth inhibition) at 200 ppm [5] | mortality at 200 ppm [6, 13] | mortality at 200 ppm [7, 14] | percent effect (mortality or growth inhibition) at 200 ppm [8]

Cn1nc(OCC(F)(F)C(F)(F)C(F)(F)C(F)F)c(C(F)(F)F)c1-n1cc(-c2ccc(Cl)c(C(=O)NC3CC3)c2)cn1 [compound 27]
≥ 80%: mortality at 200 ppm [1] | mortality at 12 ppm [2] | mortality at 200 ppm [3] | mortality at 200 ppm [4] | mortality at 200 ppm [5] | mortality at 200 ppm [6] | mortality at 200 ppm [7] | percent control (mortality or growth inhibition) at 200 ppm [8]

Cn1nc(OCC(F)(F)OC(F)(F)C(F)(F)OC(F)(F)F)c(C(F)(F)F)c1-n1cc(-c2ccc(Cl)c(C(=O)NC3CC3)c2)cn1 [compound 25]
≥ 80%: mortality at 200 ppm [1, 9] | mortality at 12 ppm [2, 10] | mortality at 200 ppm [3, 11] | mortality at 200 ppm [4, 12] | percent control (mortality, anti-feedant effect or growth inhibition) at 200 ppm [5] | mortality at 200 ppm [6, 13] | mortality at 200 ppm [7, 14] | percent effect (mortality or growth inhibition) at 200 ppm [8]
